What was measured:
[1] = Volume of distribution at steady state in iv dosed dog; type: ADME, organism-based, Canis lupus familiaris; conditions: in vivo, read-out: Vdss
Histone deacetylase 2 = Histone deacetylase 2 (Homo sapiens, UniProt Q92769)
[2] = Protein binding in dog plasma; type: ADME, cell-free, Canis lupus familiaris; conditions: read-out: PPB (converted)
Histone deacetylase 1 = Histone deacetylase 1 (Homo sapiens, UniProt Q13547)
Description: Inhibition of human recombinant C-terminally flag tagged HDAC1

Histone deacetylase 8 = biological target: T1, Histone deacetylase 8 (Homo sapiens, UniProt Q9BY41); test: Inhibition of HDAC8
T1 sequence (Q9BY41 whole entry): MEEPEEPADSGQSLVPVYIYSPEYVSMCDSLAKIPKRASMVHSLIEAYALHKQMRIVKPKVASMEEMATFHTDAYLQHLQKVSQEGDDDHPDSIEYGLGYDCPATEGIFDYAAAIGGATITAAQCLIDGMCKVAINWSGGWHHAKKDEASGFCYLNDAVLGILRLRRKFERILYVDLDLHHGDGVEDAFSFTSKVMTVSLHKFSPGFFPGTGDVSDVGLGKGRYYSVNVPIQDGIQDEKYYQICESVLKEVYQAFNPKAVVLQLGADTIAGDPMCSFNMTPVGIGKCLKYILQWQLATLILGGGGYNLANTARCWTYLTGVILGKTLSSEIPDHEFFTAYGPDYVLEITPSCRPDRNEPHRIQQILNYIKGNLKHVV

Histone deacetylase 5 = Histone deacetylase 5 (Homo sapiens, UniProt Q9UQL6); test: Inhibition of HDAC5
[3] = Volume of distribution at steady state in iv dosed rat; type: ADME, organism-based; conditions: in vivo, read-out: Vdss
[4] = Metabolic stability in dog liver microsomes assessed as intrinsic clearance; type: ADME, Canis lupus familiaris, Microsome
Liver microsomes = test: Metabolic stability in human liver microsomes assessed as intrinsic clearance; type: ADME, Microsome
[5] = biological target: T2, Protein deacetylase HDAC6 (Homo sapiens, UniProt Q9UBN7)
T2 sequence (Q9UBN7 whole entry): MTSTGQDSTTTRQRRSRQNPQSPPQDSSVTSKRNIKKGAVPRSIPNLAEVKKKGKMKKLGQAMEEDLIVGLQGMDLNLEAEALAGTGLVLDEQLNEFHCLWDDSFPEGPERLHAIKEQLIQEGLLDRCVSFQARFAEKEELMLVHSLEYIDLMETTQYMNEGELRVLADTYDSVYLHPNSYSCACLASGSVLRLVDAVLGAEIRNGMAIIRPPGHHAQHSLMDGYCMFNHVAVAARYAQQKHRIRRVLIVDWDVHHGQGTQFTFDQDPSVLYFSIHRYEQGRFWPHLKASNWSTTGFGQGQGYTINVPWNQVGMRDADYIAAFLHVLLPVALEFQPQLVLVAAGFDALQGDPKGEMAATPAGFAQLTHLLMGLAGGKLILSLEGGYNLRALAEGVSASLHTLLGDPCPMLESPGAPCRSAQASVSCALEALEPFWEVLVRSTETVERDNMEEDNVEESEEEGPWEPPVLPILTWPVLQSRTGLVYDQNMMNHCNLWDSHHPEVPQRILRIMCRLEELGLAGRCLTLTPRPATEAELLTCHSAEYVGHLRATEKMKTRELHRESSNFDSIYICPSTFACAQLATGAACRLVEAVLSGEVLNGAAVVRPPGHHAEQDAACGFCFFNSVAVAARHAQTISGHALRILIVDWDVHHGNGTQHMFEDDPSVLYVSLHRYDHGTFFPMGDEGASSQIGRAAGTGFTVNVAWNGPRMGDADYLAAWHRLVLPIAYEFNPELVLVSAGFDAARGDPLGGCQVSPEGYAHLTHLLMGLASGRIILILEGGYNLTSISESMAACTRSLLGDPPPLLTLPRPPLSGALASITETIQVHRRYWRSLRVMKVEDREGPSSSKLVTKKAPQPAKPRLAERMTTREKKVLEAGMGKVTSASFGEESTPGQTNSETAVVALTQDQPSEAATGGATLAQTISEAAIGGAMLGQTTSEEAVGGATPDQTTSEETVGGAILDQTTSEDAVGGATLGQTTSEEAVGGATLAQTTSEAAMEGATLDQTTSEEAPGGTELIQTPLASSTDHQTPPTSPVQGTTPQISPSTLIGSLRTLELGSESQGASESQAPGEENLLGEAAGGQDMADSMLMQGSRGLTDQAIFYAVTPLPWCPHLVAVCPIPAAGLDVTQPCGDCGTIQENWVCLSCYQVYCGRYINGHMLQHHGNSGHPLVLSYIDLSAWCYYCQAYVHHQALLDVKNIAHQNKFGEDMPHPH

[6] = Clearance in iv dosed dog; type: ADME, organism-based, Canis lupus familiaris; conditions: in vivo
[7] = Clearance in iv dosed rat; type: ADME, organism-based; conditions: in vivo
Histone deacetylase 7 = biological target: T3, Histone deacetylase 7 (Homo sapiens, UniProt Q8WUI4); test: Inhibition of HDAC7
T3 sequence (Q8WUI4 whole entry): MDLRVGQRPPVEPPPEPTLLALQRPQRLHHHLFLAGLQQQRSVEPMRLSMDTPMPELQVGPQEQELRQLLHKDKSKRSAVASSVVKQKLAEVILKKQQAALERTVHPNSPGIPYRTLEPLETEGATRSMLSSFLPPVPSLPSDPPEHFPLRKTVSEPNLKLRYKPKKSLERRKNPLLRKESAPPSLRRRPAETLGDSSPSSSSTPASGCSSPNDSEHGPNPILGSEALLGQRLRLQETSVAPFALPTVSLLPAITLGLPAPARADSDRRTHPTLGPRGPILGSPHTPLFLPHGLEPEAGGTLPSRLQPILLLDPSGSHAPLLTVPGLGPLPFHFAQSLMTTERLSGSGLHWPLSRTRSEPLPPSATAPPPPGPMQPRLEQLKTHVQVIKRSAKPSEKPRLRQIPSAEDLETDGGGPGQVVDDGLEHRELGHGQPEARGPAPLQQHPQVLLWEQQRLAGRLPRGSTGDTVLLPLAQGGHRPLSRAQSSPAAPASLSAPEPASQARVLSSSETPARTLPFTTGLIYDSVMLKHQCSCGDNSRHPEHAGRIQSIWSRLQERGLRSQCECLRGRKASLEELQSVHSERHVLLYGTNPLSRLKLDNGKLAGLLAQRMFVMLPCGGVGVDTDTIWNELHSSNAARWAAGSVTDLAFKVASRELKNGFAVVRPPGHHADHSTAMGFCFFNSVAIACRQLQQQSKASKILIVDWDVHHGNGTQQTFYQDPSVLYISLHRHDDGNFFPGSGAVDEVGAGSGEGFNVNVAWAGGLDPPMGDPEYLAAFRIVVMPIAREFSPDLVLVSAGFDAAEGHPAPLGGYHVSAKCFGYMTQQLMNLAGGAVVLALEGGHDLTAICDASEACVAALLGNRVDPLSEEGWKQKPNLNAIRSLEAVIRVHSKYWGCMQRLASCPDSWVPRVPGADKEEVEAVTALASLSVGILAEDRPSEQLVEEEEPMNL

[8] = Oral bioavailability dog; type: ADME, organism-based, Canis lupus familiaris; conditions: in vivo
Histone deacetylase 4 = Histone deacetylase 4 (Homo sapiens, UniProt P56524); test: Inhibition of HDAC4
HCT-116 = test: Antiproliferative activity against human HCT116 cells after 72 hrs by celltiter-blue viability assay; type: functional, cell-based; conditions: HCT-116, 72 h
[9] = Protein binding in rat plasma; type: ADME, cell-free; conditions: read-out: PPB (converted)
[10] = Half life in iv dosed dog; type: ADME, organism-based, Canis lupus familiaris; conditions: in vivo
HeLa = test: Antiproliferative activity against human HeLa cells after 72 hrs by celltiter-blue viability assay; type: functional, cell-based
[11] = Metabolic stability in rat liver microsomes assessed as intrinsic clearance; type: ADME, Microsome
[12] = Protein binding in human plasma; type: ADME, cell-free; conditions: read-out: PPB (converted)
Histone deacetylase 3 = Histone deacetylase 3 (Homo sapiens, UniProt O15379)
A549 = test: Antiproliferative activity against human A549 cells after 72 hrs by celltiter-blue viability assay; type: functional, cell-based; conditions: A549, 72 h
[13] = Half life in iv dosed rat; type: ADME, organism-based; conditions: in vivo
[14] = Oral bioavailability in rat; type: ADME, organism-based; conditions: in vivo

Chain of Histone deacetylase 5 (Q9UQL6 whole entry): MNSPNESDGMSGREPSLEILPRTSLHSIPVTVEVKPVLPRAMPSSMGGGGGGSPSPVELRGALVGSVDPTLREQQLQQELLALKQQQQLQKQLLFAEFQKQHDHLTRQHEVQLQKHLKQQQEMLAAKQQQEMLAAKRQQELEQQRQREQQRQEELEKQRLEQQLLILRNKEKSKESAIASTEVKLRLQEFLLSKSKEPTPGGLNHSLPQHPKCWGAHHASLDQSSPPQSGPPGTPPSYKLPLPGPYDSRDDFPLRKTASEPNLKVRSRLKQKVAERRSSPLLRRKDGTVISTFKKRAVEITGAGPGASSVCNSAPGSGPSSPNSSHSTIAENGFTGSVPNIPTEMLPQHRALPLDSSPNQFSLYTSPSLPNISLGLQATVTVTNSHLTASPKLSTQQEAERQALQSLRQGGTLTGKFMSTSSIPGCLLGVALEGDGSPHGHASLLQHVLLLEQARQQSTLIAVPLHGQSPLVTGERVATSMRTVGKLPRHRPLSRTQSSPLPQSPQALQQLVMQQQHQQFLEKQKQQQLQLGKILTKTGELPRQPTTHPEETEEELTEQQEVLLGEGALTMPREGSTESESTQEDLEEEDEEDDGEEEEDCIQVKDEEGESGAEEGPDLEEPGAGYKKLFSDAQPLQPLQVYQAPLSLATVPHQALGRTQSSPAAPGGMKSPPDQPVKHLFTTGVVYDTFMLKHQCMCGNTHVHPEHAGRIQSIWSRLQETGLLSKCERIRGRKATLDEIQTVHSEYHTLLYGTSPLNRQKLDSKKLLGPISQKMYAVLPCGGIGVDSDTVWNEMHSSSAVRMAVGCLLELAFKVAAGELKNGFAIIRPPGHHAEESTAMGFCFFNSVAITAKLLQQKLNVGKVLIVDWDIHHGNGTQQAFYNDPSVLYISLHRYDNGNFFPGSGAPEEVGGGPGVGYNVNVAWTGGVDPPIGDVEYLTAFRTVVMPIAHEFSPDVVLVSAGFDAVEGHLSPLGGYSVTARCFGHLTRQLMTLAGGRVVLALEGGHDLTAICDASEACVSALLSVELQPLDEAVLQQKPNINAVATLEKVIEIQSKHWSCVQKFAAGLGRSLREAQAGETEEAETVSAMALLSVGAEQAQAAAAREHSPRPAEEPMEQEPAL
Chain of Histone deacetylase 3 (O15379 whole entry): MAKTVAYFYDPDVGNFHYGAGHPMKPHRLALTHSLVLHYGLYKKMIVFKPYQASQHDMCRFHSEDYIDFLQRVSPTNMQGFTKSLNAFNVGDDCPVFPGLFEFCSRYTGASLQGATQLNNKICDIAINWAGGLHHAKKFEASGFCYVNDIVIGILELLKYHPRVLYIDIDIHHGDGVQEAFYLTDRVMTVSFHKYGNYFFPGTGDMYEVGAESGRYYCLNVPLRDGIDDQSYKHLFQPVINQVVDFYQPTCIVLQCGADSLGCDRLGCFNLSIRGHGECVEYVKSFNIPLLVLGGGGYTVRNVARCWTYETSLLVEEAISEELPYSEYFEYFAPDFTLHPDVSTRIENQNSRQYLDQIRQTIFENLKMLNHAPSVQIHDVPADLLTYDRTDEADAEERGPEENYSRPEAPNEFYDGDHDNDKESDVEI
Chain of Histone deacetylase 2 (Q92769 whole entry): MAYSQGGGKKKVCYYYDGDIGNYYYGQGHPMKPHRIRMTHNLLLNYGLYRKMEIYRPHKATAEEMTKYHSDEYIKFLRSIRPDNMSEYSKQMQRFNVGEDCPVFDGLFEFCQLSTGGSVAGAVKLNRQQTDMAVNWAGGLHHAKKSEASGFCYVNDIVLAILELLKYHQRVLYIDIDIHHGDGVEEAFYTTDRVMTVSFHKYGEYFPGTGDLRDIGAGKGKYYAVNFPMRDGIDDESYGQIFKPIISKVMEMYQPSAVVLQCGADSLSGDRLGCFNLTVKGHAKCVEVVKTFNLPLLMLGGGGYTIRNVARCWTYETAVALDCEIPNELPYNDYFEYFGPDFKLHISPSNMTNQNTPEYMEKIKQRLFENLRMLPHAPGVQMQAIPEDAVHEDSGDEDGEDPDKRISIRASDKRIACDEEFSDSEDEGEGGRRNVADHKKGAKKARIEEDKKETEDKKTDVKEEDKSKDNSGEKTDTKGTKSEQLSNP
Chain of Histone deacetylase 1 (Q13547 whole entry): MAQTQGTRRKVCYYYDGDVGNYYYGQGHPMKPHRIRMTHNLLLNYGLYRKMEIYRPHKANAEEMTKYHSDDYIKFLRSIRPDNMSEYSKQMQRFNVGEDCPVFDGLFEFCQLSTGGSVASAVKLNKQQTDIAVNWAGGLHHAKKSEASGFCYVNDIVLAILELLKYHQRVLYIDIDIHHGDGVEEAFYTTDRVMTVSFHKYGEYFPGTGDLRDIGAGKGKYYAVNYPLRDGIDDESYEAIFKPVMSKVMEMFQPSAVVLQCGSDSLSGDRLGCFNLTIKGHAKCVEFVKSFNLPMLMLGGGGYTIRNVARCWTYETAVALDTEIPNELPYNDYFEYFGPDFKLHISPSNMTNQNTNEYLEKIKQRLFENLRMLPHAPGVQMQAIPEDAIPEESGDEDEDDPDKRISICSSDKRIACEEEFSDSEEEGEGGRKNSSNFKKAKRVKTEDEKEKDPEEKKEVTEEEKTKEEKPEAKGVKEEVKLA
Chain of Histone deacetylase 4 (P56524 whole entry): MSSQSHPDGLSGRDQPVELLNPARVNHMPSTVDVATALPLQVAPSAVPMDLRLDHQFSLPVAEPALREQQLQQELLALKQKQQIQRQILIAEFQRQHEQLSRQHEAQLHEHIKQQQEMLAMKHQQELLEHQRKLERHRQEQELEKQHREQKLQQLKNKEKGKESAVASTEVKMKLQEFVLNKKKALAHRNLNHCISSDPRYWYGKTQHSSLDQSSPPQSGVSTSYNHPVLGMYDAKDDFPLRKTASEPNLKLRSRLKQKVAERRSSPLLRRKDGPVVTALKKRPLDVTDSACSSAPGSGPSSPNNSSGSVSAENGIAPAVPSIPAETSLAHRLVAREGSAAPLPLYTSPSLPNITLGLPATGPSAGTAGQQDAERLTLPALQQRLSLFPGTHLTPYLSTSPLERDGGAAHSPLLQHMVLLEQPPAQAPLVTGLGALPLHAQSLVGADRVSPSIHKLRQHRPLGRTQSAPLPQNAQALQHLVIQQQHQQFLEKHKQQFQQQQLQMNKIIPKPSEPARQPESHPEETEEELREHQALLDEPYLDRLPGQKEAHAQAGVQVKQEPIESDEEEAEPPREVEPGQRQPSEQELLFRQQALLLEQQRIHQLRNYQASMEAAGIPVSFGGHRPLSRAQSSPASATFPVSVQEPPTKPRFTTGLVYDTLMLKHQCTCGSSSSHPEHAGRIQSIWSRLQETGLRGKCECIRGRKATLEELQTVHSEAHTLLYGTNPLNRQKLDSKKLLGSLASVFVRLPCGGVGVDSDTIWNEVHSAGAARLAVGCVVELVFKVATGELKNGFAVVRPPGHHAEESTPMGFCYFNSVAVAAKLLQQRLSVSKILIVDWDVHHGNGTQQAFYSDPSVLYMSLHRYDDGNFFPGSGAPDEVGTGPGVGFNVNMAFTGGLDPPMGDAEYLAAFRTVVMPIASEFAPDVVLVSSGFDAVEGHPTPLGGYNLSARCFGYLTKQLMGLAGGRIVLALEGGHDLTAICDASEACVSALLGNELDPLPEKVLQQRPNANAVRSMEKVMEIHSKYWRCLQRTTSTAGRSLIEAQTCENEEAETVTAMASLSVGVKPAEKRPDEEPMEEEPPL

CC(=O)CCCCC[C@H](NC(=O)C1CCN(C)CC1)c1ncc(-c2ccc3ccccc3c2)[nH]1
Vd [1]: 5.2 L/kg
IC50 (Histone deacetylase 2): 29 nM
fraction unbound [2]: 0.04
IC50 (Histone deacetylase 1): 11 nM
IC50 (Histone deacetylase 8): > 1000 nM
IC50 (Histone deacetylase 5): > 1000 nM
Vd [3]: 6.9 L/kg
CL [4]: 10 µL/min/mg
CL (Liver microsomes): 12 µL/min/mg
IC50 [5]: 10 nM
clearance [6]: 7 mL/min/kg
clearance [7]: 133 mL/min/kg
IC50 (Histone deacetylase 7): > 1000 nM
bioavailability [8]: 28%
IC50 (Histone deacetylase 4): > 1000 nM
IC50 (HCT-116): 590 nM
fraction unbound [9]: 0.11
half-life [10]: 11.8 h
IC50 (HeLa): 300 nM
microsomal CLint [11]: 194 µL/min/mg
fraction unbound [12]: 0.04
IC50 (Histone deacetylase 3): 17 nM
IC50 (A549): 720 nM
half-life [13]: 2.4 h
bioavailability [14]: 0%

— ChEMBL document CHEMBL1152225, “Optimization of a series of potent and selective ketone histone deacetylase inhibitors” (Bioorg Med Chem Lett, 2008)
